# Assays:
# [1] = system: Pan02 tumor tissue immune cells; experiment: flow cytometric analysis of immune cells in Pan02 tumor tissue; format: in vivo, mouse; conditions: Pan02 tumors; comparable to CDDP and CDDP + MSA-2 groups
# Method: Flow cytometric analysis. To analyze the levels of immune cells in the tumor microenvironment, mice were sacrificed six days after the final treatment. The obtained tumors were cut into pieces and digested in T cell medium. Single-cell suspensions were obtained after filtration through nylon mesh and incubated with various antibodies. FACS tests were carried out on a flow cytometer, and the results were analyzed with NovaExpress. The following monoclonal antibodies (mAbs) were used for flow cytometry: anti-CD3-APC (17A2), anti-CD4-AF700 (RM4-5), anti-CD8-PE (53-6.7), anti-NK1.1-PE/Cy7 (PK136), anti-PD-1-FITC (29F. 1A12), anti-CD69-PE/Cy5 (H1.2F3).
# [2] = octanol-water partition coefficient, shake-flask, ICP-MS; format: physicochemical; conditions: n-octanol / phosphate buffer 10 mM pH 7.4, room temperature
# Method: Lipid-water partition coefficient. The shake-flask method was used to measure the partition coefficients of CDDP, I and II. Briefly, a mixture containing equal volumes of n-octanol and phosphate buffer (10 mM, pH 7.4) was shaken on a mechanical shaker at room temperature for 24 h. Complexes (10 mM) in phosphate buffer (presaturated with n-octanol) were mixed with an equal volume of n-octanol (presaturated with phosphate buffer), and the mixture was shaken for 24 h at room temperature. Centrifugation was carried out at 2500 rpm for 30 min to separate the two phases. The aqueous layer was carefully separated, and the Pt content in the initial and final aqueous phases was analyzed by inductively coupled plasma mass spectrometry (ICP-MS). The log PO/W was measured using the following equation: log PO/W = log [(Ptinitial ‒ Ptfinal)/Ptfinal].
# [3] = system: BMDCs cultured with Pan02 cell CM; experiment: IFN-β ELISA of BMDCs incubated with conditioned medium of drug-treated Pan02 cells; format: cell-based, mouse
# Method: (§1) ELISA. Bone marrow-derived dendritic cells (BMDCs) were prepared according to the following method. Briefly, femurs and tibias were removed from 4-6 week-old C57BL/6 mice, and the bone marrow cells were isolated. The bone marrow cells were incubated in T cell medium [RPMI-1640 medium (with GlutaMAX), supplemented with 10% FBS, 1% HEPES, 1% NEAA, 1% sodium pyruvate, and 0.1% βME] containing 20 ng/mL GM-CSF for 6 days after erythrocyte lysis, during which time half of the medium was replaced with fresh T cell medium once and the cytokines were supplemented. Then, the BMDCs were harvested on day 7 for further study.
# Pan02 tumor cells were treated with various drugs at a concentration of 5 μM for 48 h, and then the drug-pretreated tumor cell supernatant was obtained by centrifugation at a speed of 12000 rpm/min for 5 min and used as conditioned media (CM) subsequently.
# (§2) BMDCs were cultured with 50% CM plus 50% fresh medium for 18 h. In addition, BMDCs were cultured with fresh medium containing different complexes or mixtures (15 μM CDDP and I, a mixture of I and 8 equiv. AsA, and equal AsA). Then, all the BMDC supernatant was collected and centrifuged for subsequent cytokine analysis using ELISA kits, which were performed according to the manufacturer’s instructions.
# STING pathway in BMDCs = experiment: IFN-β and IL-6 ELISA in supernatants of BMDCs treated with complexes; format: cell-based, mouse
# Method: as §1, §2
# HK-2 cells = experiment: 72 h MTT cytotoxicity, HK-2; format: cell-based; conditions: human normal kidney cell line
# Method: (§3) Cytotoxicity. Tumor cells were cultured overnight after inoculation in RPMI-1640 medium or DMEM supplemented with 10% FBS. All cultures were maintained in an incubator in a highly humidified atmosphere of 95% air with 5% CO2 at 37 °C. Growth inhibition was measured with an MTT assay. Briefly, 2800–7000 cells per well in culture medium (100 μL) were plated in 96-well plates (Corning). The cells were treated in triplicate with different concentrations of complexes at 37 ℃ for 72 h. Stock solutions of CDDP and oxoplatin were prepared in PBS, while stock solutions of conjugates I and II and the ligand MSA-2 were prepared in DMSO. The stock solutions were diluted in complete medium (DMSO < 0.5%). An aliquot of MTT solution (40 μL, 2.5 mg·mL^–1) in PBS buffer was added to each well and incubated for 4 h. The supernatant was removed and DMSO (150 μL) was added to solubilize the formazan crystals. The amount of formazan was determined using a microplate reader at 570 nm after the plates were shaken for 30 min. The optical density (OD) was used to calculate the percentage of viable cells relative to untreated control values. Background readings for MTT incubated in cell-free medium were subtracted from each value before calculation. […] The mean IC50 values were calculated using data from three replicates.
# [4] = H&E histology of major organs after treatment; format: in vivo, mouse; conditions: C57BL/6 mice after treatment, 10.0 μmol/kg
# Method: Hematoxylin and eosin staining. Tissue samples were subjected to histopathological examination using hematoxylin and eosin (H&E) staining. Mouse organs (heart, liver, spleen, lungs and kidneys) were collected in 4% paraformaldehyde for proper fixation and then embedded in paraffin using a tissue embedding machine. Sections were prepared in an orderly manner by dewaxing, dehydration, and H&E staining. The tissue morphology was observed under a fluorescence microscope (Olympus BX41, Japan).
# Pan02 tumors = experiment: in vivo antitumor activity, C57BL/6 mice bearing Pan02 tumors; set-up: species or system mouse
# Method: In vivo antitumor activity. Female C57BL/6 mice (6–8 weeks old) were subcutaneously implanted with pan02 cells (2 × 10^6) in the right flank. Once the tumor volume reached approximately 60 mm^3, the mice were assigned to 4 groups at random (n = 5–8) and received treatment with PBS, CDDP (10.0 μmol/kg), I (10.0 μmol/kg), or a mixture of CDDP (10.0 μmol/kg) and MSA-2 (10.0 μmol/kg). The mice received 9 treatments. Changes in body weight and tumor volume were recorded. All the experimental procedures utilizing mice were performed in accordance with the Guidelines for Care and Use of Laboratory Animals of Nanjing University and experiments were approved by the Institutional Animal Care and Use Committee of Nanjing University (IACUC-2101001, SL-019-00).
# BxPC3 cells = experiment: 72 h MTT cytotoxicity, BxPC3; format: cell-based, human
# Method: as §3
# [5] = pretreated with 8 equiv. AsA for 24 h, compared with no pretreatment
compound,measurement,setting,value
COc1cc2cc(C(=O)CCC(=O)[O][Pt]([NH2])([NH2])([OH])([Cl])[Cl])sc2cc1OC [conjugate I],infiltration of CD8+ and CD4+ T cells,[1],slightly increased
same,octanol-water partition coefficient (logPo/w),[2],0.9
same,"IFN-β secretion by BMDCs pretreated with MyD88 inhibitor, treated Pan02 cell CM",[3]; MyD88 inhibitor TJ-M2010-5,significant decrease
same,IFN-β secretion by BMDCs incubated with treated Pan02 cell CM,"[3]; Pan02 treated 48 h at 5 μM (Pt-E-I 20 μM), BMDCs 50% CM, 18 h",markedly increased
same,IFN-β secretion by BMDCs,"STING pathway in BMDCs; 18 h, ELISA, 15 μM",minimal
same,IL-6 secretion by BMDCs,"STING pathway in BMDCs; 18 h, ELISA, 15 μM",minimal
same,"IFN-β secretion by BMDCs, compound pretreated with AsA",STING pathway in BMDCs; [5],significantly enhanced
same,"IL-6 secretion by BMDCs, compound pretreated with AsA",STING pathway in BMDCs; [5],significantly enhanced
same,IC50,HK-2 cells,120 ± 10 nM
same,histological findings in major organs,[4],only mild vacuolar degeneration in the liver and aggregates containing only a few inflammatory cells in the lungs
same,tumor volume,"Pan02 tumors; C57BL/6 mice, Pan02 tumors, 10.0 μmol/kg every 2 days for 16 days, intravenous",106.3 ± 6.2 mm^3
same,tumor growth after cessation of treatment,Pan02 tumors; monitored another 6 days,substantially suppressed
same,IC50,BxPC3 cells,20 ± 10 nM
